Among the test systems are EKVX; HCT-116; T47D; SF-295; PC-3; A549; NCI-H460; SN12C; MCF7; HCT-15; SK-OV-3; SNB-75; Hs-578T; NCI/ADR-RES; SNB-19; COLO 205; OVCAR-8; IGROV-1; NCI-H522; TK-10.
What all share (experiment): NCI-60 cell line screen, 48 h

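Cultured in 96-well plates, cells were exposed to test compound for 48 hours across five concentrations. At the GI50, growth is halved.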 Active and inactive are the calls of the source. Rule as the data show it: active = GI50 up to about 1.1 µM and inactive = higher.

With `CN1C(=O)C(CCO)(C(C)(C)C)c2ccccc21` (configuration not stated), the GI50 with EKVX, with HCT-116, with T47D, with SF-295, in the experiment on PC-3 and in the experiment with A549 was > 100 µM (inactive) each time. The GI50 is > 100 µM (inactive) in the experiment on NCI-H460; > 100 µM (inactive) with SN12C; > 100 µM (inactive) with MCF7; over 100 µM with HCT-15; > 100 µM (inactive) in the experiment on SK-OV-3; 68.1 µM (inactive) in the experiment on SNB-75. Also, the GI50 in the experiment on Hs-578T, in the experiment on NCI/ADR-RES, with SNB-19, with COLO 205 and in the experiment on OVCAR-8 was > 100 µM (inactive) throughout.
Consider `CCOC(=O)CSc1nc2ccccc2c(=O)n1N`, for which the GI50 with EKVX was > 100 µM (inactive); in the experiment with HCT-116, > 100 µM (inactive); with T47D, > 100 µM (inactive); with SF-295 it was > 100 µM (inactive); with PC-3 it was > 100 µM (inactive); with A549, 83 µM (inactive). The GI50 with NCI-H460 was 83.4 µM (inactive); with SN12C, 63.1 µM (inactive); in the experiment with MCF7, > 100 µM (inactive); in the experiment on HCT-15, over 100 µM; in the experiment on SNB-75 it was > 100 µM (inactive); with Hs-578T, > 100 µM (inactive). In addition, the GI50 was > 100 µM (inactive) in the experiment with IGROV-1; > 100 µM (inactive) with NCI/ADR-RES; > 100 µM (inactive) in the experiment with SNB-19; > 100 µM (inactive) in the experiment with NCI-H522; > 100 µM (inactive) with COLO 205; 32.8 µM (inactive) in the experiment on OVCAR-8. Besides, the GI50 with TK-10 is 83.2 µM (inactive).
Turning to `Cc1cc(-c2c(F)cc3c4nn([C@H]5CC[C@@H](N(C)C)CC5)c(=O)c-4cn(C4CC4)c3c2F)cc(C)n1`, the GI50 in the experiment on EKVX is 2.06 µM (inactive); in the experiment on HCT-116, 0.16 µM (active); in the experiment on T47D, 0.347 µM (active); in the experiment with SF-295 it was 0.169 µM (active); in the experiment with PC-3, 1.56 µM (inactive); in the experiment with A549, 0.161 µM (active). Besides, the GI50 in the experiment on NCI-H460 is < 0.0224 µM (active); in the experiment with SN12C it was 0.168 µM (active); in the experiment on MCF7, 0.0728 µM (active); in the experiment on HCT-15, 1.74 µM; in the experiment on SK-OV-3, 0.183 µM (active); in the experiment with SNB-75 it was 0.0512 µM (active). The GI50 with Hs-578T is 0.173 µM (active); in the experiment on IGROV-1, 1.66 µM (inactive); with SNB-19 it was 0.309 µM (active); with NCI-H522, 0.169 µM (active); with COLO 205, 0.208 µM (active); with OVCAR-8, 0.221 µM (active). Also, the GI50 in the experiment with TK-10 is 0.519 µM (active).
For the molecule `O=C(/C=C/c1cccs1)c1ccc(Cl)s1`, the GI50 in the experiment on EKVX was > 100 µM (inactive); in the experiment on HCT-116, 18.2 µM (inactive); in the experiment on T47D, 35.1 µM (inactive); in the experiment with SF-295, 37.8 µM (inactive); in the experiment with PC-3, 40.6 µM (inactive); in the experiment on A549, 42.9 µM (inactive). The GI50 is 72.8 µM (inactive) with NCI-H460; 18.6 µM (inactive) in the experiment with SN12C; 17.2 µM (inactive) in the experiment on MCF7; 18.2 µM in the experiment on HCT-15; 67 µM (inactive) in the experiment on SK-OV-3; 56 µM (inactive) in the experiment on SNB-75. Also, the GI50 is 46.7 µM (inactive) with Hs-578T; > 10 µM (inactive) in the experiment on IGROV-1; > 100 µM (inactive) in the experiment on NCI/ADR-RES; 15.7 µM (inactive) in the experiment with SNB-19; > 10 µM (inactive) with COLO 205; 37.9 µM (inactive) in the experiment on OVCAR-8. Besides, the GI50 in the experiment on TK-10 is > 100 µM (inactive).
Consider `CCCCCCCCCC/C=C/CC(=O)SCCNC(=O)CCNC(=O)[C@@H](O)C(C)(C)COP(=O)(O)OP(=O)(O)OCC1OC(n2cnc3c(N)ncnc32)C(O)C1OP(=O)(O)O` (some centres not stated), for which the GI50 with EKVX, in the experiment with HCT-116, in the experiment on T47D, in the experiment with SF-295, in the experiment with PC-3 and with A549 was > 10 µM (inactive) each time. For the same molecule, the GI50 in the experiment on NCI-H460 is > 10 µM (inactive); in the experiment on SN12C, > 10 µM (inactive); in the experiment on MCF7 it was > 10 µM (inactive); in the experiment on HCT-15, over 10 µM; with SK-OV-3 it was > 10 µM (inactive); in the experiment with SNB-75, > 10 µM (inactive). Also, the GI50 with Hs-578T, in the experiment with IGROV-1, with NCI/ADR-RES, in the experiment on SNB-19, with COLO 205 and in the experiment on OVCAR-8 was > 10 µM (inactive) in each case. Also, in the experiment on TK-10, the GI50 was > 10 µM (inactive).
For `O=C(c1ccncc1)C1C(=O)c2ccccc2C1C1(O)c2ccccc2CC1C(O)c1ccncc1` (configuration not stated), the GI50 was 33 µM (inactive) in the experiment on EKVX; 28.2 µM (inactive) in the experiment with HCT-116; 50.8 µM (inactive) in the experiment with T47D; 31.4 µM (inactive) in the experiment with SF-295; 29.6 µM (inactive) with A549; 34.2 µM (inactive) with NCI-H460. Besides, the GI50 with SN12C was 46.9 µM (inactive); in the experiment on MCF7, 39.6 µM (inactive); with HCT-15, 41.3 µM; with SK-OV-3, 7.96 µM (inactive); in the experiment on SNB-75, 50 µM (inactive); in the experiment on Hs-578T it was 38.6 µM (inactive). In addition, the GI50 was 40.5 µM (inactive) in the experiment on IGROV-1; 46.6 µM (inactive) in the experiment on NCI/ADR-RES; 46.2 µM (inactive) in the experiment with SNB-19; 31.3 µM (inactive) in the experiment on NCI-H522; 47.6 µM (inactive) with COLO 205; 60 µM (inactive) with OVCAR-8. In addition, the GI50 in the experiment on TK-10 was 90.8 µM (inactive).
Consider `O=C(COc1ccc(OCC(=O)N/N=C/c2ccc(-c3ccc(Cl)cc3Cl)o2)c(Cl)c1)N/N=C/c1ccc(-c2ccc(Cl)cc2Cl)o1`, for which the GI50 was 0.142 µM (active) with EKVX; > 100 µM (inactive) with HCT-116; > 100 µM (inactive) with T47D; 32.2 µM (inactive) with SF-295; 33.7 µM (inactive) with PC-3; 85.5 µM (inactive) with A549. For the same molecule, the GI50 was > 100 µM (inactive) with NCI-H460; > 100 µM (inactive) in the experiment with SN12C; 41.8 µM (inactive) in the experiment with MCF7; over 100 µM in the experiment with HCT-15; 80.2 µM (inactive) with Hs-578T; > 100 µM (inactive) in the experiment on IGROV-1. Besides, the GI50 with NCI/ADR-RES is 12.3 µM (inactive); in the experiment on SNB-19 it was > 100 µM (inactive); with NCI-H522, 81.8 µM (inactive); with COLO 205, 0.942 µM (active); with OVCAR-8, 55.3 µM (inactive); with TK-10, > 100 µM (inactive).
Consider `O=c1[nH]c(=O)n(C2CC(O)C(CO)O2)cc1/N=N/NCCCc1ccccc1` (configuration not stated), for which the GI50 in the experiment with EKVX, in the experiment on HCT-116, in the experiment with T47D, with SF-295, in the experiment with PC-3 and with A549 was > 100 µM (inactive) throughout. The GI50 is > 100 µM (inactive) with NCI-H460; > 100 µM (inactive) in the experiment on SN12C; > 100 µM (inactive) in the experiment on MCF7; over 100 µM with HCT-15; > 100 µM (inactive) in the experiment on SK-OV-3; > 100 µM (inactive) in the experiment on Hs-578T. Moreover, the GI50 in the experiment with IGROV-1, with NCI/ADR-RES, with COLO 205, with OVCAR-8 and in the experiment on TK-10 was > 100 µM (inactive) in each case.
For `COc1ccc(/N=N/C(=O)NC(Cc2ccccc2)C(=O)O)cc1` (configuration not stated), the GI50 with EKVX was > 100 µM (inactive); in the experiment on HCT-116, > 100 µM (inactive); in the experiment on T47D, > 100 µM (inactive); in the experiment with SF-295, > 100 µM (inactive); with PC-3 it was 95.7 µM (inactive); in the experiment on A549 it was > 100 µM (inactive). In addition, the GI50 with NCI-H460 is > 100 µM (inactive); in the experiment with SN12C it was > 100 µM (inactive); in the experiment on MCF7, > 100 µM (inactive); in the experiment on HCT-15, over 100 µM; with SNB-75 it was > 100 µM (inactive); in the experiment on Hs-578T it was > 100 µM (inactive). Besides, the GI50 in the experiment on IGROV-1, in the experiment on NCI/ADR-RES, in the experiment on SNB-19, in the experiment on NCI-H522, with COLO 205 and in the experiment with OVCAR-8 was > 100 µM (inactive) throughout. The GI50 in the experiment with TK-10 is > 100 µM (inactive).
With `C=CCN1CCC(c2cc(C(=O)OCC)[nH]c2-c2cc(C)no2)C1=O` (configuration not stated), the GI50 in the experiment on EKVX, with HCT-116, with T47D, in the experiment on SF-295, with PC-3 and in the experiment with A549 was > 100 µM (inactive) in each case. The GI50 was > 100 µM (inactive) in the experiment on NCI-H460; > 100 µM (inactive) in the experiment with SN12C; > 100 µM (inactive) in the experiment on MCF7; over 100 µM with HCT-15; > 100 µM (inactive) with SK-OV-3; 94.8 µM (inactive) in the experiment on SNB-75. The GI50 in the experiment with Hs-578T, in the experiment on IGROV-1, in the experiment on NCI/ADR-RES, in the experiment with SNB-19, in the experiment on COLO 205 and in the experiment with OVCAR-8 was > 100 µM (inactive) in each case.
Take `CC1(C)CC2=NC(SSC3=C(C#N)C(c4ccc(Br)cc4)C4=C(O)CC(C)(C)CC4=N3)=C(C#N)C(c3ccc(Br)cc3)C2=C(O)C1` (configuration not stated): the GI50 with EKVX, with HCT-116, in the experiment on T47D, with SF-295, with PC-3 and with A549 was > 100 µM (inactive) throughout. The GI50 was > 100 µM (inactive) in the experiment on NCI-H460; > 100 µM (inactive) in the experiment with SN12C; over 100 µM with HCT-15; > 100 µM (inactive) in the experiment with SK-OV-3; > 100 µM (inactive) with Hs-578T; > 100 µM (inactive) in the experiment on IGROV-1. Further, the GI50 is > 100 µM (inactive) in the experiment with NCI/ADR-RES; > 100 µM (inactive) in the experiment with SNB-19; 57.7 µM (inactive) in the experiment on NCI-H522; > 100 µM (inactive) in the experiment with COLO 205; > 100 µM (inactive) with OVCAR-8; > 100 µM (inactive) in the experiment with TK-10.

The values are drawn from ChEMBL document CHEMBL1201862, “PubChem BioAssay data set” (2004).
